These results are taken from PMC12526154, “Bioactive Compounds Discovery from French Guiana Plant Extracts Through Antitubercular Screening and Molecular Networking” (Plants, 2025).

≈ marks a conversion by molar mass, not a printed value. Entries after “also recorded” stand apart in the source; their conditions may differ. Where two headings read alike, the source gives them in different places.

The subject of data set [1] is Mtb H37Ra strain (ATCC 25177). In words: Broth microdilution growth inhibition assay against Mtb H37Ra. As to conditions: for antitubercular activity (in words): Mtb H37Ra; for MIC90: 90% inhibition of Mtb H37Ra growth. In kind it is cell-based, Mycobacterium tuberculosis.
A further data set in a line: in vitro. As to conditions: human, CC50, BEAS-2B, 24 h exposure, resazurin; mean ± SD (n = 3).
Data set [2] is described as follows: Resazurin reduction cytotoxicity assay, IMR90. The settings on record: human, IMR-90 fetal lung fibroblasts.
Data set [3] can be described thus: Resazurin reduction cytotoxicity assay, HepG2. As to conditions: human, HepG2 hepatocellular carcinoma cells.
For the next data set, the system named is HepG2 cells. In words: Resazurin reduction cytotoxicity assay, HepG2. As to conditions: HepG2, 24 h exposure, resazurin; mean ± SD (n = 3).
The nature of data set [4]: Resazurin reduction cytotoxicity assay, Raw264.7. The settings on record: mouse.
A short description of data set [5]: Resazurin reduction cytotoxicity assay, THP-1 macrophages. The settings on record: human.
A further data set concerns Mtb H37Rv. As to conditions: cited from earlier work; for MIC90 / MIC (H37Rv): previously reported.
The next data set concerns Mtb H37Ra. As to conditions: cited from earlier work.
A further data set has as its system Mycobacterium smegmatis. Also on record: method as in earlier work. The settings on record: ref 33 (Van Puyvelde et al.); cited from earlier work.
Setting [6] is: Mycobacterium tuberculosis, pure commercial compounds, 50% inhibition of Mtb H37Ra growth, mean ± SD, read-out: MIC50.
Where [7] appears, read: Mycobacterium tuberculosis, pure commercial compounds, mean ± SD, read-out: MIC90.
[8] abbreviates: pure commercial compounds, 50% inhibition of Mtb H37Ra growth, mean ± SD, read-out: MIC50.
[9] abbreviates: pure commercial compounds, 50% inhibition of Mtb H37Ra growth, mean ± SD.
Setting [10] is: pure commercial compounds, mean ± SD.

As to `COc1cc(C2c3c(cc(OC)c(O)c3OC)CC(CO)C2CO)cc(OC)c1O` (stereo not drawn) [Lyoniresinol], the “antitubercular activity (in words)” value in data set [1] was “inactive”. Besides, the MIC50 in data set [1] (setting [6]) and in data set [1] (setting [8]) was more than 200 µM in each case. For the same compound, the MIC90 in data set [1] (setting [7]) is more than 200 µM.
With `C=Cc1c(C)c2cc3nc(c4c5[nH]c(cc6nc(cc1[nH]2)C(C)=C6CC)c(C)c5C(=O)[C@@H]4C(=O)OC)[C@@H](CCC(=O)O)[C@@H]3C` [Pheophorbide A], the MIC50 in [1] (setting [6]) was found to be 10.5 ± 5 µM (≈ 6.22 µg/mL); in data set [1] (setting [8]) it was 10.5 µM (≈ 6.22 µg/mL). Moreover, the MIC90 in data set [1] (setting [7]) is 17 ± 7.6 µM (≈ 10.1 µg/mL). For the same compound, the CC50 was approximately 4.9 µM in “in vitro” and “no cytotoxicity” in the data set on HepG2 cells. Besides, the CC50 at 24 h in data set [2] is approximately 11.5 µM; in [3] it was more than 84.3 µM; in data set [4] (Raw264.7 macrophage cells), 20.9 ± 6.5 µM; in data set [5], 1.4 ± 0.8 µM.
For the compound `CC(C)=CCC[C@](C)(O)[C@@H]1CC=C(C)CC1` [α-bisabolol], the MIC50 in [1] (Mycobacterium tuberculosis) and in data set [1] (setting [8]) was more than 200 µM in each case. Further, the MIC90 in data set [1] (setting [7]) was more than 200 µM. For the same compound, the CC50 in “in vitro” is more than 250 µM. Besides, the CC50 at 24 h in data set [2] is more than 250 µM; in data set [3] it was more than 250 µM; in data set [4] (Raw264.7 macrophage cells), 174 ± 26.2 µM; in data set [5] (THP-1-derived macrophages (PMA-differentiated)), more than 250 µM.
Regarding `CC[C@@H](CO)NCCN[C@@H](CC)CO` [Ethambutol, reference compound], the MIC50 in data set [1] (setting [6]) was 10.3 ± 4 µM (≈ 2.1 µg/mL). For the same compound, the MIC90 in data set [1] (setting [7]) stood at 17.3 ± 0.96 µM (≈ 3.53 µg/mL).
For `C=C1CC[C@H]2O[C@]2(C)CC[C@@H]2[C@@H]1CC2(C)C` [Caryophyllene oxide], the “antitubercular activity (in words)” value in data set [1] is “very low to no activity; also recorded: inactive”. The MIC50 in [1] (setting [6]) and in data set [1] (setting [8]) was more than 200 µM throughout. The MIC90 in [1] (setting [7]) is more than 200 µM.
As to `CC1(C)C[C@H](O)C[C@@]2(C)OC(=O)C=C12` [Loliolide], the “antitubercular activity (in words)” value in [1] is “inactive”. In addition, the MIC50 in [1] (setting [6]) and in data set [1] (setting [8]) was more than 200 µM throughout. In addition, in data set [1] (setting [7]), the MIC90 was more than 200 µM.
As to `C/C1=C\CC(C)(C)/C=C/C(=O)/C(C)=C/CC1` [Zerumbone], in data set [1], the “antitubercular activity (in words)” value was “very low to no activity; also recorded: inactive”. Moreover, the MIC50 in [1] (Mycobacterium tuberculosis) and in data set [1] (setting [8]) was more than 200 µM in each case. Also, the MIC90 in data set [1] (setting [7]) is more than 200 µM. The compound further returned a CC50 in “in vitro” of 149 ± 43.2 µM. Also, the CC50 at 24 h in data set [2] is 79.8 ± 48.7 µM; in [3], more than 250 µM; in data set [4] (Raw264.7 macrophage cells), 44.5 ± 3.5 µM; in data set [5] it was 51.6 ± 31.6 µM.
Turning to `COc1ccc(-c2oc3cc(OC)c(OC)c(O)c3c(=O)c2OC)cc1O` [Casticin], the MIC50 in data set [1] (setting [6]) and in data set [1] (setting [8]) was more than 200 µM each time. Besides, in data set [1] (setting [7]), the MIC90 is more than 200 µM.
`O=c1c(O)c(-c2ccc(O)c(O)c2)oc2cc(O)cc(O)c12` [Quercetin]: the MIC90 in the data set with Mtb H37Rv (H37Rv) is given as 6.25 µg/mL (≈ 20.7 µM).
As to `COc1cc2oc(-c3ccc(O)c(O)c3)cc(=O)c2c(O)c1OC` [Cirsiliol], the MIC50 in data set [1] (setting [6]) was found to be 80.3 µM (≈ 26.5 µg/mL); in [1] (setting [9]), 80.3 ± 43 µM (≈ 26.5 µg/mL). Further, the MIC90 was more than 200 µM in data set [1] (setting [7]) and more than 200 µM in data set [1] (pure commercial compounds, mean ± SD, read-out: MIC90). In the data set “in vitro”, the CC50 was more than 250 µM. The CC50 at 24 h in data set [2] is 108 ± 44.1 µM; in data set [3], more than 250 µM; in [4] (Raw264.7 macrophage cells) it was 71.2 ± 44.1 µM; in [5], 11.2 ± 2.7 µM.
As for `O=c1cc(-c2ccc(O)cc2)oc2cc(O)cc(O)c12` [apigenin], in the data set on Mtb H37Rv (Mtb H37Rv), the “MIC90 / MIC (H37Rv)” value is listed as 70 µg/mL (≈ 259 µM).
`NC[C@H]1O[C@H](O[C@H]2[C@H](O)[C@@H](O[C@H]3O[C@H](CO)[C@@H](O)[C@H](N)[C@H]3O)[C@H](N)C[C@@H]2N)[C@H](O)[C@@H](O)[C@@H]1O` [Kanamycin, reference compound] showed an MIC50 in data set [1] (setting [9]) of 3.3 ± 0.40 µM (≈ 1.6 µg/mL). Further, in data set [1] (setting [10]), the MIC90 turned out to be 7.5 ± 1.7 µM (≈ 3.63 µg/mL).
On to `COc1ccc(-c2coc3cc(O)ccc3c2=O)cc1` [formononetin], for which, in the data set on Mtb H37Ra, the MIC90 was 25 µg/mL (≈ 93.2 µM).
For the compound `COc1c(O)cc2oc(-c3ccc(O)cc3)cc(=O)c2c1O` [Hispidulin], the MIC50 is 54.8 µM (≈ 16.5 µg/mL) in data set [1] (setting [6]) and 54.8 ± 25.6 µM (≈ 16.5 µg/mL) in data set [1] (setting [9]). Further, the MIC90 in [1] (setting [7]) came out at 162 µM (≈ 48.6 µg/mL); in [1] (setting [10]), 162 ± 75 µM (≈ 48.6 µg/mL). Also, in “in vitro”, the CC50 was more than 250 µM. For the same compound, the CC50 at 24 h in [4] came to 227 ± 36.7 µM; in data set [5], 21.1 ± 14.5 µM.
For `O=C1CC(c2ccc(O)cc2)Oc2cc(O)ccc21` (stereo not drawn) [liquitirigenin], the “MIC (H37Ra)” value in the data set on Mtb H37Ra (previously reported MIC90) is reported as 25 µg/mL (≈ 97.6 µM).
Take `O=c1cc(-c2ccc(O)c(O)c2)oc2cc(O)cc(O)c12` [Luteolin]: the “MIC90 / MIC (H37Rv)” value in the data set on Mtb H37Rv (Mtb H37Rv) is given as 78.12 µg/mL (≈ 273 µM).
Consider `CC(C)C1=C(O)C(=O)C2=C(C=C[C@H]3C(C)(C)CCC[C@]23C)C1=O` [6,7-dehydroroyleanone], for which the MIC90 in the data set with Mtb H37Rv (Mtb H37Rv, ref 10 (Baldin et al.)) is listed as 31.2 µg/mL (≈ 99.2 µM).
As for `C=C[C@]1(C)C=C2[C@H](O)C[C@@H]3C(C)(CCC[C@@]3(C)CO)[C@H]2CC1` (stereo partly drawn) [8(14),15-sandaracopimaradiene-7α,18diol], the MIC90 in the data set with Mycobacterium smegmatis is 12 µg/mL (≈ 39.4 µM).
Turning to `COc1ccc(-c2coc3cc(O)c(OC)cc3c2=O)cc1` [afrormosin], in the data set with Mtb H37Ra, the MIC90 was 50 µg/mL (≈ 168 µM).
